{"source": "patent US20150329608A1", "about": "(INSTITUT PASTEUR, priority 2008, published 2015)", "key": {"[1]": {"test_system": "colic inflammation in rats", "assay": "Colic inflammation model (intrarectal TNBS)", "format": "in vivo, rat", "details": "opiorphin 1 mg/kg i.v."}, "[2]": {"test_system": "acute pain behavioral response in male rats"}, "[3]": {"test_system": "locomotor activity in rats", "details": "opiorphin 1 mg/kg i.v.; vs control", "procedure": "The measured variables are the number of upright standing movements (vertical activity) and the number of passages into the two compartments (horizontal activity) during a period of 3 min. The reference molecule is imipramine (20 mg/kg)."}, "[4]": {"test_system": "anxiety in Wistar male rats"}, "[5]": {"test_system": "pharmaco-dependency behavior in rats", "details": "opiorphin at effective analgesic doses (1 mg/kg), repeated administration"}, "[6]": {"test_system": "tail-flick response in male Wistar rats", "procedure": "Male Wistar rats (Harlan, France) weighing 250 to 280 g at the beginning of the experiment were used in this study. After 7-day acclimatization period, they were weighed and randomly housed according to the treatment groups in a room with a 12 h alternating light/dark cycle (21:00 p.m./9:00 a.m.) and controlled temperature (21±1° C.) and hygrometry (50±5%). Food and water were available ad libidum. They were experimentally only tested once.\n(§1) All drugs were administered in a volume of 1 ml/kg body weight.\nThe tail-flick test evaluating the time required to respond to acute thermal stimulus preferentially reflects nociceptive spinal reflex. A standardized tail-flick apparatus (Harvard Apparatus LTD, Edenbridge, England) with a radiant heat source connected to an automated tail-flick analgesymeter was used. Rats were accustomed to the situation of contention for two 2-min sessions, the day prior the test. On experimental day, they were gently restrained by hand so the radiant heat source was focused onto the distal dorsal surface of the tail. […] Under these experimental conditions and in reference to morphine, a 5 sec cut-off time was established to prevent tissue damage. […] For tolerance induction rats received daily intravenous administration of freshly prepared solutions during seven consecutive days.\nThe results were expressed as mean±SEM. The significance of differences between groups was evaluated using the Kruskal-Wallis one-way analysis of variance by ranks (KWT, a non-parametric method) for comparison between several independent variables across the experimental conditions. […] The non-parametric Wilcoxon matched pairs test (WT) was used to compare two paired variables with repeated measures in each treatment group. For all statistical evaluations, the level of significance was set at P<0.05. All statistical analyses were carried out using the computer software StatView®5 statistical package (SAS, Institute, Inc., USA)."}, "[7]": {"test_system": "despair or resignation behavior in adult male rats", "assay": "Behavioral despair test (forced swimming test)", "procedure": "The protective effect against resignation may be determined by the forced swimming test in rats.\nThe peptide to be tested is administered after the pre-test session and before the test. The immobility time of the rats is recorded for 5 min during the pre-test and the test.\nThe test includes a pre-test session of 15 minutes and a test session of 5 minutes, after 24 hours. During the pre-test session, the behavior of the rat is recorded during the first 5 minutes. At the end of the pre-test, the rat is removed from the water, delicately dried, treated and then put back in his dwelling cage. During the test, the rat is again deposited in water and its behavior is recorded for 5 minutes.\nThe reference substance was 8-OH-DOAT (0.5 mg/kg) which is a 5-HT1a agonist or imipramine (20 mg/kg), which is an inhibitor of serotonin reuptake."}, "[8]": {"test_system": "chronic pain behavioral response in rats", "assay": "Formalin test (chronic chemical inflammatory pain)", "procedure": "The reference substance is morphine, at a dose of 2 mg/kg.\nThe antagonistic effect of the following ligands was analyzed: an opioid antagonist with a wide spectrum (Naloxone, 3 mg/kg) and selective antagonists of the opioid μ-receptors (CTOP, 0.8 mg/kg), δ-receptors (Naltrindole, 10 mg/kg) and κ-receptors (Nor-Binaltorphimine, 5 mg/kg), respectively.\nas §1"}}, "note": "Peptide text beside a SMILES is read from it."}
{"smiles": "CC(C)Cc1ccc(C(C)C(=O)O)cc1", "note": "(stereo not drawn) [ibuprofen, reference compound]", "values": [{"measurement": "protection of the colic wall from inflammation", "setting": "[1]", "value": "protect the colic wall from inflammation"}]}
{"smiles": "NC(=O)CC[C@H](N)C(=O)N[C@@H](CCCN=C(N)N)C(=O)N[C@@H](Cc1ccccc1)C(=O)N[C@@H](CO)C(=O)N[C@@H](CCCN=C(N)N)C(=O)O", "note": "[opiorphin, QRFSR] (H-QRFSR-OH)", "values": [{"measurement": "protection of the colic wall from inflammation", "setting": "[1]", "value": "does not protect the colic wall from inflammation"}, {"measurement": "antinociceptive activity compared with morphine", "setting": "[2]; opiorphin 1 mg/kg i.v. vs morphine 6 mg/kg i.p.", "value": "equivalent"}, {"measurement": "antinociceptive activity", "setting": "[2]; opiorphin 1 mg/kg i.v., n=8-12 rats/group", "value": "potent antinociceptive activity"}, {"measurement": "anti-peristaltic effect", "setting": "peristaltism in rats; rats treated with opiorphin", "value": "not observed"}, {"measurement": "latency time for entering the dark compartment, Test", "setting": "memorization in rats; 24 hours after, Opiorphin 1 mg/kg i.v. given immediately after pre-test, average ±SEM, n=8", "value": "158.5 ± 20.5"}, {"measurement": "amnesia effect", "setting": "memorization in rats; opiorphin 1 mg/kg i.v.", "value": "does not show any amnesia effect"}, {"measurement": "hyperactivity effect", "setting": "[3]", "value": "nor any significant hyperactivity effect"}, {"measurement": "overall anxiety score, Average ± SEM", "setting": "[4]; Opiorphin 1 mg/kg i.v., 15 minutes before the test, n=8", "value": "25.94 ± 3.74"}, {"measurement": "anxiolytic activity relatively to the control", "setting": "[4]; opiorphin 1 mg/kg i.v.", "value": "did not show any anxiolytic activity"}, {"measurement": "pharmaco-dependence", "setting": "[5]", "value": "does not cause significant pharmaco-dependence"}, {"measurement": "response latencies vs morphine-treated rats", "setting": "[6]; 15, 25 and 60 minutes after treatment, Opiorphin 2 mg/kg i.v. vs morphine 1 mg/kg i.v.", "value": "did not significantly differ"}, {"measurement": "tolerance to maximal antinociceptive effect", "setting": "[6]; Opiorphin 2 mg/kg i.v. once daily for 7 days", "value": "does not induce the development of tolerance"}, {"measurement": "dose of maximal antinociceptive effect", "setting": "[6]; preliminary data, dose-dependent responses", "value": 2, "unit": "mg/kg"}, {"measurement": "effects of opiorphin in the presence of Naltrindole", "setting": "[7]; Naltrindole 10 mg/kg, specific antagonist of δ-opioid receptors", "value": "abolished"}, {"measurement": "dose of maximum antidepressant potency", "setting": "[7]; administered intravenously, adult male rats", "value": 1, "unit": "mg/kg"}, {"measurement": "immobility time in the test vs control group (Mann-Whitney)", "setting": "[7]; opiorphin 0.5 mg/kg i.v.", "value": "tends to be less than that of the rats from the control group"}, {"measurement": "immobility time in the test vs control group (Mann-Whitney)", "setting": "[7]; opiorphin 1 mg/kg i.v.", "value": "significantly less than that of the rats from the control group"}, {"measurement": "immobility time, change between pre-test and test (Wilcoxon)", "setting": "[7]; opiorphin 1 mg/kg i.v.", "value": "significantly decreases between the pre-test and the test"}, {"measurement": "effect in the behavioral despair model", "setting": "[7]; opiorphin 1 mg/kg i.v., second series", "value": "induces an antidepressant effect in addition to a psychostimulant effect"}, {"measurement": "immobility time in the test vs control group (Mann-Whitney)", "setting": "[7]; opiorphin 2 mg/kg i.v.", "value": "significantly less than that of the rats from the control group"}, {"measurement": "immobility time, change between pre-test and test (Wilcoxon)", "setting": "[7]; opiorphin 2 mg/kg i.v.", "value": "significantly decreases between the pre-test and the test"}, {"measurement": "analgesic effect of opiorphin in the presence of Naloxone", "setting": "[8]; Naloxone 3 mg/kg", "value": "abolished"}, {"measurement": "prolonged analgesic profile, dose effect", "setting": "[8]; duration of licking of the paw and number of spasms, n=8 rats/group", "value": "significant dose-dependent effect"}, {"measurement": "dose of maximum anti-nociceptive potency", "setting": "[8]; i.v., duration of licking of the paw and number of spasms, 60 min", "value": "1 to 2", "unit": "mg/kg"}, {"measurement": "analgesic effect of opiorphin in the presence of CTPA", "setting": "[8]; specific antagonist of μ-opioid receptors, 0.8 mg/kg", "value": "abolished"}]}
{"smiles": "CN1CC[C@]23c4c5ccc(O)c4O[C@H]2[C@@H](O)C=C[C@H]3[C@H]1C5", "note": "[morphine, reference compound]", "values": [{"measurement": "inhibition of peristaltism as compared with control rats", "setting": "peristaltism in rats; rats treated with morphine", "value": "80-90%"}, {"measurement": "morphine-induced increase vs Opiorphin-induced response, day 7", "setting": "[6]; 15 min post-injection, after 7 days chronic treatment", "value": "tended to be lower than the response induced by Opiorphin"}]}
{"smiles": "CCCN(CCC)C1CCc2cccc(O)c2C1", "note": "(stereo not drawn) [8-OH-DPAT, reference compound]", "values": [{"measurement": "immobility time in the test vs control group (Mann-Whitney)", "setting": "[7]; 8-OH-DPAT 0.5 mg/kg", "value": "significantly less than that of the rats from the control group"}, {"measurement": "immobility time, change between pre-test and test (Wilcoxon)", "setting": "[7]; 8-OH-DPAT 0.5 mg/kg", "value": "significantly decreases between the pre-test and the test"}]}
